Measured values: patent publication US20210255193A1, “LYSINE REACTIVE PROBES AND USES THEREOF” (The Scripps Research Institute, priority 2017, published 2021)

Legend:
Assay in all cases: competitive isoTOP-ABPP
Type in all cases: binding
CUL2 Cullin-2 = target: T1, CUL2 Cullin-2 (Homo sapiens, UniProt Q13617); conditions: for isoTOP-ABPP reactivity ratio at lysine Q13617_K489 / isoTOP-ABPP ratio (R) at liganded lysine Q13617_K489: 50 uM, in vitro; for isoTOP-ABPP reactivity ratio at lysine Q13617_K489: 231 sol; for isoTOP-ABPP ratio (R) at liganded lysine Q13617_K489: sol, 231
T1 construct: isoTOP-ABPP experiments performed in cell lysates (in vitro); endogenous in cells; host or cells: soluble proteome of human cancer cell lines (MDA-MB-231, Ramos, Jurkat)
Summary of the method: (§1)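 Cell lysate (0.5 ml) was pre-treated with fragment, 50 μM for activated esters or 100 μM for guanidinylating agents, versus DMSO, then labeled 1 h at ambient temperature with 0.1 mM STP-alkyne. Light/heavy TEV tags attached by CuAAC; R = DMSO/compound MS1 peak-area ratio, median per lysine.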

[1] = target: T2, FECH Ferrochelatase, mitochondrial (Homo sapiens, UniProt P22830); conditions: for isoTOP-ABPP reactivity ratio at lysine P22830_K304 / isoTOP-ABPP ratio (R) at liganded lysine P22830_K304: 50 uM, in vitro; for isoTOP-ABPP reactivity ratio at lysine P22830_K304: 231 sol; for isoTOP-ABPP ratio (R) at liganded lysine P22830_K304: sol, 231
T2 construct: isoTOP-ABPP experiments performed in cell lysates (in vitro); endogenous in cells; host or cells: soluble proteome of human cancer cell lines (MDA-MB-231; Ramos and Jurkat also prepared)
T2 sequence (P22830 55-423): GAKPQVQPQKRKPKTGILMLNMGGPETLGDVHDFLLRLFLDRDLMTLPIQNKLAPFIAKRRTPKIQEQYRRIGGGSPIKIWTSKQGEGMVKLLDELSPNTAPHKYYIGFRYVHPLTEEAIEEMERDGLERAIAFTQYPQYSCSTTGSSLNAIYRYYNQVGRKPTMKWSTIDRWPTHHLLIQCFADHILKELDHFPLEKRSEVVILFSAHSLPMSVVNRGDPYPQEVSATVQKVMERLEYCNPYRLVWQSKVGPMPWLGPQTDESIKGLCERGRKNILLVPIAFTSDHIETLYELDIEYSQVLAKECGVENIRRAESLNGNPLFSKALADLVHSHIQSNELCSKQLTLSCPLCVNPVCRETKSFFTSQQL
Summary of the method: as §1

[2] = target: T3, GOLGB1 Golgin subfamily B member 1 (Homo sapiens, UniProt Q14789); conditions: for isoTOP-ABPP reactivity ratio at lysine Q14789_K103 / isoTOP-ABPP ratio (R) at liganded lysine Q14789_K103: 50 uM, in vitro; for isoTOP-ABPP reactivity ratio at lysine Q14789_K103: 231 sol; for isoTOP-ABPP ratio (R) at liganded lysine Q14789_K103: sol, 231
T3 construct: isoTOP-ABPP experiments performed in cell lysates (in vitro); endogenous in cells; host or cells: soluble proteome of human cancer cell lines (MDA-MB-231, Ramos, Jurkat)
Summary of the method: as §1

[3] = target: T4, HNRNPK Heterogeneous nuclear ribonucleoprotein K (Homo sapiens, UniProt P61978); conditions: for isoTOP-ABPP reactivity ratio at lysine P61978_K405 / isoTOP-ABPP ratio (R) at liganded lysine P61978_K405: 50 uM, in vitro; for isoTOP-ABPP reactivity ratio at lysine P61978_K405: 231 sol; for isoTOP-ABPP ratio (R) at liganded lysine P61978_K405: sol, 231
T4 construct: isoTOP-ABPP experiments performed in cell lysates (in vitro); endogenous in cells; host or cells: soluble proteome of human cancer cell lines (MDA-MB-231, Ramos, Jurkat)
Summary of the method: as §1

[4] = target: T5, KIAA1967 DBIRD complex subunit KIAA1967 (Homo sapiens, UniProt Q8N163); conditions: for isoTOP-ABPP reactivity ratio at lysine Q8N163_K97 / isoTOP-ABPP reactivity ratio at lysine Q8N163_K112 / isoTOP-ABPP ratio (R) at liganded lysine Q8N163_K97 / isoTOP-ABPP ratio (R) at liganded lysine Q8N163_K112: 50 uM, in vitro; for isoTOP-ABPP reactivity ratio at lysine Q8N163_K97 / isoTOP-ABPP reactivity ratio at lysine Q8N163_K112: 231 sol; for isoTOP-ABPP ratio (R) at liganded lysine Q8N163_K97 / isoTOP-ABPP ratio (R) at liganded lysine Q8N163_K112: sol, 231
T5 construct: isoTOP-ABPP experiments performed in cell lysates (in vitro); endogenous in cells; host or cells: soluble proteome of human cancer cell lines (MDA-MB-231; Ramos and Jurkat also prepared)
Summary of the method: as §1

[5] = target: T6, NPEPPS Puromycin-sensitive aminopeptidase (Homo sapiens, UniProt P55786); conditions: for isoTOP-ABPP reactivity ratio at lysine P55786_K712 / isoTOP-ABPP ratio (R) at liganded lysine P55786_K712: 50 uM, in vitro; for isoTOP-ABPP reactivity ratio at lysine P55786_K712: 231 sol; for isoTOP-ABPP ratio (R) at liganded lysine P55786_K712: sol, 231
T6 construct: isoTOP-ABPP experiments performed in cell lysates (in vitro); endogenous in cells; host or cells: soluble proteome of human cancer cell lines (MDA-MB-231, Ramos, Jurkat)
Summary of the method: as §1

[6] = target: T7, RINT1 RAD50-interacting protein 1 (Homo sapiens, UniProt Q6NUQ1); conditions: for isoTOP-ABPP reactivity ratio at lysine Q6NUQ1_K771 / isoTOP-ABPP ratio (R) at liganded lysine Q6NUQ1_K771: 50 uM, in vitro; for isoTOP-ABPP reactivity ratio at lysine Q6NUQ1_K771: 231 sol; for isoTOP-ABPP ratio (R) at liganded lysine Q6NUQ1_K771: sol, 231
T7 construct: isoTOP-ABPP experiments performed in cell lysates (in vitro); endogenous in cells; host or cells: soluble proteome of human cancer cell lines (MDA-MB-231; Ramos and Jurkat also prepared)
Summary of the method: as §1

T7 sequence (Q6NUQ1 whole entry): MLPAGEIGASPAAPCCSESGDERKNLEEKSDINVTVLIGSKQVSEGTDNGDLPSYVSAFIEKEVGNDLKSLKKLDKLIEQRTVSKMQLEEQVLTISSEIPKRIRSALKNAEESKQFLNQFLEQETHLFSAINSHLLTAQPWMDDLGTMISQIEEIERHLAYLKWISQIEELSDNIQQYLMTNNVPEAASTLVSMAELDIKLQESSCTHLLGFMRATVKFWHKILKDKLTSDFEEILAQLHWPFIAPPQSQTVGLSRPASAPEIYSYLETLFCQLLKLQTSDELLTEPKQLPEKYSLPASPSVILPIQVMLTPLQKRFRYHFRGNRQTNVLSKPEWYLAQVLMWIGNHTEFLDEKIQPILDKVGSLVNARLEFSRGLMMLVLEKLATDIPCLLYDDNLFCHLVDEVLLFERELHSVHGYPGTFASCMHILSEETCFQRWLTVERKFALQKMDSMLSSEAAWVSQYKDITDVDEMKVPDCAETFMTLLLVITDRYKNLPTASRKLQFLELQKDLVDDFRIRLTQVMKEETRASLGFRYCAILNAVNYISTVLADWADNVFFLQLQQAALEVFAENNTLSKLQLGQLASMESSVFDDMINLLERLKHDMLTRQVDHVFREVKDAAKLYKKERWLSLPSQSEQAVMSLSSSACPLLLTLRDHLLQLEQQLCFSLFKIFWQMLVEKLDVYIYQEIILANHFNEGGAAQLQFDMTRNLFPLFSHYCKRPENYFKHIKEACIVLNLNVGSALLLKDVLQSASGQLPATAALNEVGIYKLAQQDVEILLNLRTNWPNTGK
T6 sequence (P55786 whole entry): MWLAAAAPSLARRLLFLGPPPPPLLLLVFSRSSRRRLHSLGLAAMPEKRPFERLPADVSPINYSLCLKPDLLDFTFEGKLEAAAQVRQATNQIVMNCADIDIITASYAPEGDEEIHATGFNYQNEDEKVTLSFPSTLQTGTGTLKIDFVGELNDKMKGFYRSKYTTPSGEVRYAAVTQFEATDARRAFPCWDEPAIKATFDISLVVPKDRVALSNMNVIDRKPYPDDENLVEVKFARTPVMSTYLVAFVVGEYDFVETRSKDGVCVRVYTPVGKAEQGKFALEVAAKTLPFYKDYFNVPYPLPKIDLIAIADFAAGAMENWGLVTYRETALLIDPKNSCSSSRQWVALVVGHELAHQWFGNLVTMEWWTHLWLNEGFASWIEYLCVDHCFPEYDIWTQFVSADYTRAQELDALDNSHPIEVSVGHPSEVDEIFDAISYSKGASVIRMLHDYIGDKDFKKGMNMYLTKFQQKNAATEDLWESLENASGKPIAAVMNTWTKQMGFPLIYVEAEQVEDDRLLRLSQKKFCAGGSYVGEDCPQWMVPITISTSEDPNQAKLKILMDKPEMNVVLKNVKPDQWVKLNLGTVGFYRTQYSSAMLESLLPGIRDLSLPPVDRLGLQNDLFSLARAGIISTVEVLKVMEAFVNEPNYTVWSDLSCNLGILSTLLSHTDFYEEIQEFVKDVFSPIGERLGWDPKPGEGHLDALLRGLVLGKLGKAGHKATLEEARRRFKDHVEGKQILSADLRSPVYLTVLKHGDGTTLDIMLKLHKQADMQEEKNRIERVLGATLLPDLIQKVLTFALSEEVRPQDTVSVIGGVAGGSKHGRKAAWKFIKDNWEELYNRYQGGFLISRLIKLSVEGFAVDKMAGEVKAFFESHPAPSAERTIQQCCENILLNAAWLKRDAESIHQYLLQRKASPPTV
T3 sequence (Q14789 whole entry): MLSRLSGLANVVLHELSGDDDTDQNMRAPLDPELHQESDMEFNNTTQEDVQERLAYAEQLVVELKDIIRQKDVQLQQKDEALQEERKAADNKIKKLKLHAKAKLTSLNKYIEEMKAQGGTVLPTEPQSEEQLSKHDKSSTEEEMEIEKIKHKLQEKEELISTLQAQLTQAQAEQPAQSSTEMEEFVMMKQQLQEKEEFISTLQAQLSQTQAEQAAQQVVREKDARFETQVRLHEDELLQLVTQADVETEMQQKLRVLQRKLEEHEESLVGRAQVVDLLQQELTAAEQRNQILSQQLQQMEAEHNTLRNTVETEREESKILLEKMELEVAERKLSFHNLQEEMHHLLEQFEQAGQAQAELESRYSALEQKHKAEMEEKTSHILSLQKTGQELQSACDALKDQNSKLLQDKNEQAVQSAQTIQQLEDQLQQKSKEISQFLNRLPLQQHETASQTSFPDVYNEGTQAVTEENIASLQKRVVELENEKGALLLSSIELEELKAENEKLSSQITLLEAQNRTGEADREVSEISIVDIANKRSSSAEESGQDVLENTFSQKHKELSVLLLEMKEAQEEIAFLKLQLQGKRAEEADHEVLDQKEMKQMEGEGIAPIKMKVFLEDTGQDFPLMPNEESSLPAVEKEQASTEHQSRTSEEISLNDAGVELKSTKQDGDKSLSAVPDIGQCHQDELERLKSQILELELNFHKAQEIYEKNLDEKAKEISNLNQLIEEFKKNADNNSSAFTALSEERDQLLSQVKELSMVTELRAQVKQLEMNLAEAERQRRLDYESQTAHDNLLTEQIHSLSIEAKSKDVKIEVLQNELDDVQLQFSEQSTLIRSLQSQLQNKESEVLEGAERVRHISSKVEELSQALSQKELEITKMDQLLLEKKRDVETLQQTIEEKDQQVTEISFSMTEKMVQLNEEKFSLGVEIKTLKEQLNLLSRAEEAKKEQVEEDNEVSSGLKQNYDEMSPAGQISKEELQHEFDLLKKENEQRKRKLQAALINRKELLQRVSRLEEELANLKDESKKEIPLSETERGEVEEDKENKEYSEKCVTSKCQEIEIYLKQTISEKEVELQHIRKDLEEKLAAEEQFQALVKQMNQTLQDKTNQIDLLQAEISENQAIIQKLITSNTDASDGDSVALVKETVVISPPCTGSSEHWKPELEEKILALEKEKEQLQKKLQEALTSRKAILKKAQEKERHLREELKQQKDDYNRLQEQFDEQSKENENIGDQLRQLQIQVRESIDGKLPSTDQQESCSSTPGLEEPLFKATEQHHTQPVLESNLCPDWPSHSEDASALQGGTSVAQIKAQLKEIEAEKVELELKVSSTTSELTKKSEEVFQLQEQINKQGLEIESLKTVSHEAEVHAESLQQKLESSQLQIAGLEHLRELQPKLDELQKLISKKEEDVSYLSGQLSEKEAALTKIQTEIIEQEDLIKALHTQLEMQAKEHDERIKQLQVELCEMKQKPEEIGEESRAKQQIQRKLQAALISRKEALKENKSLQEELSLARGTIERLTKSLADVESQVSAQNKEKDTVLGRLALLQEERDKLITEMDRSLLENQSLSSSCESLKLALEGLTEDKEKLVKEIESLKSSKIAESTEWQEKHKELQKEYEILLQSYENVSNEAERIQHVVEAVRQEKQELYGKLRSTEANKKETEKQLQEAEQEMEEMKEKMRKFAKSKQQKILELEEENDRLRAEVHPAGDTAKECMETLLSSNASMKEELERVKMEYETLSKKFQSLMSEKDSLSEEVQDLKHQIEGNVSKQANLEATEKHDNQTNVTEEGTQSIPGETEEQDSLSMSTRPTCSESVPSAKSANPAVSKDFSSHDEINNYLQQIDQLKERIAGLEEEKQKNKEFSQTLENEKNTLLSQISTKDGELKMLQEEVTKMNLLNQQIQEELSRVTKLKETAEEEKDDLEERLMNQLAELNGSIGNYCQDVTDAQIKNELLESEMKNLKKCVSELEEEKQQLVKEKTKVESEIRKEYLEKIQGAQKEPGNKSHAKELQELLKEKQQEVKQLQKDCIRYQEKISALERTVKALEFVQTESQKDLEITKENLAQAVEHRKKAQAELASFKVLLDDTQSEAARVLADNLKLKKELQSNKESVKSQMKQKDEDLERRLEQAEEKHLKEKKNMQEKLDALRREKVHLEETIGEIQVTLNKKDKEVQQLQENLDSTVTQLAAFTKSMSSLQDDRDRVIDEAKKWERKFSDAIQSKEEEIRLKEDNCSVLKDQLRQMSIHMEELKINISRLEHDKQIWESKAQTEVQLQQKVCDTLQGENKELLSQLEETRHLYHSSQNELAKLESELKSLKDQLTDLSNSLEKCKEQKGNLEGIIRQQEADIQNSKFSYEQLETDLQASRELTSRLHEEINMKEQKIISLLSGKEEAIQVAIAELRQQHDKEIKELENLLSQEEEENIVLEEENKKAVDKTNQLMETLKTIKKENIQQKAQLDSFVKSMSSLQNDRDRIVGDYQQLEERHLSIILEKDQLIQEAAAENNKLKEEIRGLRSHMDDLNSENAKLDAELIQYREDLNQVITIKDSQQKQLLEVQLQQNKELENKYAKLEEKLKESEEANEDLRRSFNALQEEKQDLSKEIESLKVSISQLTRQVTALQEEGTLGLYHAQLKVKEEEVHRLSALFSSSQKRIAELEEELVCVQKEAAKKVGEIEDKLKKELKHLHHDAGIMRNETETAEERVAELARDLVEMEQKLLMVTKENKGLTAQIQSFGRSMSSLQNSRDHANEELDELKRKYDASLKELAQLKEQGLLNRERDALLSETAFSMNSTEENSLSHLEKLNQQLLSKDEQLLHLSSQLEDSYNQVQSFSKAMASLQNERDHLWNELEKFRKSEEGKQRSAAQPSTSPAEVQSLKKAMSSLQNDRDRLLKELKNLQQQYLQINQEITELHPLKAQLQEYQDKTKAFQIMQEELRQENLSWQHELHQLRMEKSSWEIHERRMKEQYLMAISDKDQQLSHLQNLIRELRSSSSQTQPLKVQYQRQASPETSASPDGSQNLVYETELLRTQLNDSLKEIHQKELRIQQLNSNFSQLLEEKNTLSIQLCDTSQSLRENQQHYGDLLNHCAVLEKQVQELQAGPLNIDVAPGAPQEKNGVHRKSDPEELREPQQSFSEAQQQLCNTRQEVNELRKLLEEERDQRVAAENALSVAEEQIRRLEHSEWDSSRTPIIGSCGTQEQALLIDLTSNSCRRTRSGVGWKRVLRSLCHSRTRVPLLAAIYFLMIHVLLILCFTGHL

SMILES	isoTOP-ABPP reactivity ratio at lysine Q13617_K489 (CUL2 Cullin-2)	isoTOP-ABPP reactivity ratio at lysine P22830_K304 [1]	isoTOP-ABPP reactivity ratio at lysine Q14789_K103 [2]	isoTOP-ABPP reactivity ratio at lysine P61978_K405 [3]	isoTOP-ABPP reactivity ratio at lysine Q8N163_K97 [4]	isoTOP-ABPP reactivity ratio at lysine Q8N163_K112 [4]	isoTOP-ABPP reactivity ratio at lysine P55786_K712 [5]	isoTOP-ABPP reactivity ratio at lysine Q6NUQ1_K771 [6]	isoTOP-ABPP ratio (R) at liganded lysine Q13617_K489 (CUL2 Cullin-2)	isoTOP-ABPP ratio (R) at liganded lysine P22830_K304 [1]	isoTOP-ABPP ratio (R) at liganded lysine Q14789_K103 [2]	isoTOP-ABPP ratio (R) at liganded lysine P61978_K405 [3]	isoTOP-ABPP ratio (R) at liganded lysine Q8N163_K97 [4]	isoTOP-ABPP ratio (R) at liganded lysine Q8N163_K112 [4]	isoTOP-ABPP ratio (R) at liganded lysine P55786_K712 [5]	isoTOP-ABPP ratio (R) at liganded lysine Q6NUQ1_K771 [6]	further results
O=C(CN1C(=O)c2ccccc2C1=O)Oc1c(F)c(F)c(F)c(F)c1F [fragment 27, Pentafluorophenyl 2-(1,3-dioxoisoindolin-2-yl)acetate]	1.1	1.5	1.3	1.0	0.9	1.2	1.2	1.1	–	–	–	–	–	–	–	–	–
O=C(CCc1cn(-c2ccccc2)nc1-c1ccccc1)Oc1ccc([N+](=O)[O-])cc1[N+](=O)[O-] [fragment 29, 2,4-Dinitrophenyl 3-(1,3-diphenyl-1H-pyrazol-4-yl)propanoate]	1.2	5.4	1.1	20.0	0.8	1.2	1.1	1.2	–	–	–	–	–	–	–	–	–
O=C(Oc1ccc([N+](=O)[O-])cc1[N+](=O)[O-])c1ccc(Oc2ccccc2)cc1 [fragment 39, 2,4-Dinitrophenyl 4-phenoxybenzoate]	–	–	–	–	–	–	–	–	20.0	1.3	0.9	0.8	0.9	1.1	0.9	1.5	–
CC(=O)Oc1ccc([N+](=O)[O-])cc1[N+](=O)[O-] [fragment 43, 2,4-Dinitrophenyl acetate]	–	–	–	–	–	–	–	–	1.2	1.3	1.0	1.3	0.9	1.0	2.3	1.0	–
N#Cc1ccc(C(=O)Oc2ccc([N+](=O)[O-])cc2[N+](=O)[O-])cc1 [fragment 44, 2,4-Dinitrophenyl 4-cyanobenzoate]	–	–	–	–	–	–	–	–	–	–	–	–	–	–	–	–	isoTOP-ABPP ratio, lysine Q13617_K489 (CUL2 Cullin-2; 50 uM_231_sol_in vitro): 0.8; isoTOP-ABPP ratio, lysine P22830_K304 ([1]; 50 uM_231_sol_in vitro): 1.1; isoTOP-ABPP ratio, lysine Q14789_K103 ([2]; 50 uM_231_sol_in vitro): 0.9; isoTOP-ABPP ratio, lysine P61978_K405 ([3]; 50 uM_231_sol_in vitro): 1.0; isoTOP-ABPP ratio, lysine Q8N163_K97 ([4]; 50 uM_231_sol_in vitro): 0.8; isoTOP-ABPP ratio, lysine Q8N163_K112 ([4]; 50 uM_231_sol_in vitro): 1.0; isoTOP-ABPP ratio, lysine P55786_K712 ([5]; 50 uM_231_sol_in vitro): 1.0; isoTOP-ABPP ratio, lysine Q6NUQ1_K771 ([6]; 50 uM_231_sol_in vitro): 1.7
